System: relapsed or refractory, rituximab-naive or -sensitive follicular B-cell NHL
Assay: Treatment free interval, Vc-R vs rituximab study, by biomarker
Assay type: in vivo, human
Set-up: Treatment Free Interval, Median: unit not given here
Excerpt: Non-Hodgkin lymphoma (NHL) encompasses several unique malignant lymphoid disease entities that vary in clinical behavior, morphologic appearance, immunologic, and molecular phenotype. […] A randomized, open-label, active-controlled, multicenter, multinational, prospective study to compare the efficacy and safety of the combination of bortezomib and rituximab (Vc-R) to single-agent rituximab in subjects who have relapsed or refractory, rituximab-naive or -sensitive follicular B-cell NHL was performed.
Subjects were centrally randomized to Treatment Groups A (Vc-R) or B (rituximab) in a 1:1 ratio taking into account the following stratification factors: • Follicular Lymphoma International Prognostic Index (FLIPI) score (low [0 or 1 factor], intermediate [2 factors], high [≧3 factors]); • Prior rituximab therapy (yes, no); • Time since last dose of anti-lymphoma therapy (≦1 year, >1 year); • Region (United States/Canada, European Union, Rest of World).
The following clinical endpoints were included in the analysis within each treatment group and an overall comparison was made with the biomarker-related endpoints: Progression-free survival, defined as the interval between the date of randomization and the date of progressive disease (PD) or death, whichever is first reported in the ITT population; overall survival; overall response rate (complete response [CR]+CR unconfirmed [CRu]+partial response [PR]); overall CR rate (CR+CRu); duration of response; time to next anti-lymphoma therapy; and treatment free interval.

[1] = P65 % NUCLEAR STAINING: 0, 1 Prior Line of Therapy, IRC Review
[2] = P65 % NUCLEAR STAINING: ≦5%, 2 Prior Lines of Therapy, IRC Review
[3] = P65 % NUCLEAR STAINING: ≦5%, 5 Prior Lines of Therapy, IRC Review
[4] = P65 % NUCLEAR STAINING: ≦5%, Prior Rituximab Therapy, IRC Review
[5] = P65 % NUCLEAR STAINING: ≦5%, ≦65 years old, IRC Review
[6] = P65 % POSITIVE CYTOPLASMIC SIGNAL: >90%, 1 Prior Line of Therapy, IRC Review
[7] = P65 % POSITIVE CYTOPLASMIC SIGNAL: >90%, No Subgroup, IRC Review
[8] = P65 % POSITIVE CYTOPLASMIC SIGNAL: >90%, White, IRC Review
[9] = P65 % POSITIVE CYTOPLASMIC SIGNAL: >90%, ≦65 years old, IRC Review
[10] = P65 INTENSITY CYTOPLASMIC SIGNAL: ≦1+, Ann Arbor Stage III, IRC Review
[11] = P65 INTENSITY CYTOPLASMIC SIGNAL: ≧2+, 1 Prior Line of Therapy, IRC Review
[12] = P65 INTENSITY CYTOPLASMIC SIGNAL: ≧2+, ≦65 years old, IRC Review
[13] = PSMB1/A171S: G/G, >1 year since last anti-lymphoma treatment, IRC Review
[14] = PSMB1/A171S: G/G, No Subgroup, IRC Review
[15] = PSMB1/A171S: G/G, ≦65 years old, IRC review
[16] = PSMB1/I208N: T/T, >1 year since last anti-lymphoma treatment, IRC Review
[17] = PSMB1/I208N: T/T, No Subgroup, IRC Review
[18] = PSMB1/I208N: T/T, ≦65 years old, IRC review
[19] = PSMB1/P11A: C/G, European Union, IRC Review
[20] = PSMB1/P11A: C/G, No Subgroup, IRC Review
[21] = PSMB1/P11A: C/G, ≦65 years old, IRC review
[22] = PSMB1/P11A: G/G, ≦65 years old, IRC Review
[23] = PSMB1/P193L: C/C, >1 year since last anti-lymphoma treatment, IRC Review
[24] = PSMB1/P193L: C/C, ≦65 years old, IRC review
[25] = PSMB2/E49X: G/G, >1 year since last anti-lymphoma treatment, IRC Review
[26] = PSMB2/E49X: G/G, ≦65 years old, IRC review
[27] = PSMB2/G187V: G/G, >1 year since last anti-lymphoma treatment, IRC Review
[28] = PSMB2/G187V: G/G, ≦65 years old, IRC review
[29] = PSMB2/L159F: C/C, >1 year since last anti-lymphoma treatment, IRC Review
[30] = PSMB2/L159F: C/C, ≦65 years old, IRC review
[31] = PSMB5/L206M: C/C, >1 year since last anti-lymphoma treatment, IRC Review
[32] = PSMB5/L206M: C/C, ≦65 years old, IRC review
[33] = PSMB5/R24C: C/C, >1 year since last anti-lymphoma treatment, IRC Review
[34] = PSMB5/R24C: C/C, ≦65 years old, IRC review
[35] = PSMB6/A234D: C/C, >1 year since last anti-lymphoma treatment, IRC Review
[36] = PSMB6/A234D: C/C, ≦65 years old, IRC review
[37] = PSMB6/P107A: C/C, >1 year since last anti-lymphoma treatment, IRC Review
[38] = PSMB6/P107A: C/C, ≦65 years old, IRC review
[39] = PSMB8/G8R: G/G, >1 year since last anti-lymphoma treatment, IRC Review
[40] = PSMB8/G8R: G/G, ≦65 years old, IRC review
[41] = PSMB8/R141C: C/C, >1 year since last anti-lymphoma treatment, IRC Review
[42] = PSMB8/R141C: C/C, ≦65 years old, IRC review
[43] = PSMB8/V182M: G/G, >1 year since last anti-lymphoma treatment, IRC review
[44] = PSMB8/V182M: G/G, ≦65 years old, IRC review
[45] = PSMB9/G9E: G/G, >1 year since last anti-lymphoma treatment, IRC review
[46] = PSMB9/G9E: G/G, ≦65 years old, IRC review
[47] = PSMB9/V32I: C/C, >1 year since last anti-lymphoma treatment, IRC review
[48] = PSMB9/V32I: C/C, High Tumor Burden, IRC Review
[49] = PSMB9/V32I: C/C, ≦65 years old, IRC review

Substance: rituximab
- Treatment Free Interval, Median (P27 SIGNAL INTENSITY: ≧2+, Prior Rituximab Therapy, IRC Review): 272
- Treatment Free Interval, Evt/N [1]: 54/79
- Treatment Free Interval, Median [1]: 406
- Treatment Free Interval, Evt/N [2]: 7/9
- Treatment Free Interval, Median [2]: 85
- Treatment Free Interval, Evt/N [3]: 3/3
- Treatment Free Interval, Median [3]: 95
- Treatment Free Interval, Evt/N [4]: 16/21
- Treatment Free Interval, Median [4]: 93
- Treatment Free Interval, Evt/N [5]: 19/29
- Treatment Free Interval, Median [5]: 234
- Treatment Free Interval, Evt/N [6]: 59/89
- Treatment Free Interval, Median [6]: 409
- Treatment Free Interval, Evt/N [7]: 129/204
- Treatment Free Interval, Median [7]: 363
- Treatment Free Interval, Evt/N [8]: 113/179
- Treatment Free Interval, Median [8]: 363
- Treatment Free Interval, Evt/N [9]: 103/154
- Treatment Free Interval, Median [9]: 343
- Treatment Free Interval, Evt/N [10]: 10/11
- Treatment Free Interval, Median [10]: 119
- Treatment Free Interval, Evt/N [11]: 54/85
- Treatment Free Interval, Median [11]: 427
- Treatment Free Interval, Evt/N [12]: 101/152
- Treatment Free Interval, Median [12]: 343
- Treatment Free Interval, Evt/N [13]: 98/165
- Treatment Free Interval, Median [13]: 547
- Treatment Free Interval, Evt/N [14]: 173/276
- Treatment Free Interval, Median [14]: 406
- Treatment Free Interval, Evt/N [15]: 130/198
- Treatment Free Interval, Median [15]: 344
- Treatment Free Interval, Evt/N [16]: 98/165
- Treatment Free Interval, Median [16]: 547
- Treatment Free Interval, Evt/N [17]: 173/276
- Treatment Free Interval, Median [17]: 406
- Treatment Free Interval, Evt/N [18]: 130/198
- Treatment Free Interval, Median [18]: 344
- Treatment Free Interval, Evt/N [19]: 34/49
- Treatment Free Interval, Median [19]: 309
- Treatment Free Interval, Median (PSMB1/P11A: C/G, Female, IRC Review): 406
- Treatment Free Interval, Evt/N [20]: 78/127
- Treatment Free Interval, Median [20]: 409
- Treatment Free Interval, Evt/N [21]: 63/96
- Treatment Free Interval, Median [21]: 406
- Treatment Free Interval, Evt/N [22]: 21/25
- Treatment Free Interval, Median [22]: 269
- Treatment Free Interval, Evt/N [23]: 98/165
- Treatment Free Interval, Median [23]: 547
- Treatment Free Interval, Median (PSMB1/P193L: C/C, No Subgroup, IRC Review): 406
- Treatment Free Interval, Evt/N [24]: 130/198
- Treatment Free Interval, Median [24]: 344
- Treatment Free Interval, Evt/N [25]: 98/165
- Treatment Free Interval, Median [25]: 547
- Treatment Free Interval, Evt/N [26]: 130/198
- Treatment Free Interval, Median [26]: 344
- Treatment Free Interval, Evt/N [27]: 98/165
- Treatment Free Interval, Median [27]: 547
- Treatment Free Interval, Evt/N [28]: 130/198
- Treatment Free Interval, Median [28]: 344
- Treatment Free Interval, Evt/N [29]: 98/165
- Treatment Free Interval, Median [29]: 547
- Treatment Free Interval, Evt/N [30]: 130/198
- Treatment Free Interval, Median [30]: 344
- Treatment Free Interval, Evt/N [31]: 98/165
- Treatment Free Interval, Median [31]: 547
- Treatment Free Interval, Evt/N [32]: 130/198
- Treatment Free Interval, Median [32]: 344
- Treatment Free Interval, Evt/N [33]: 81/137
- Treatment Free Interval, Median [33]: 507
- Treatment Free Interval, Evt/N [34]: 113/170
- Treatment Free Interval, Median [34]: 344
- Treatment Free Interval, Evt/N [35]: 98/165
- Treatment Free Interval, Median [35]: 547
- Treatment Free Interval, Evt/N [36]: 130/198
- Treatment Free Interval, Median [36]: 344
- Treatment Free Interval, Evt/N [37]: 95/159
- Treatment Free Interval, Median [37]: 561
- Treatment Free Interval, Evt/N [38]: 125/189
- Treatment Free Interval, Median [38]: 363
- Treatment Free Interval, Evt/N [39]: 91/155
- Treatment Free Interval, Median [39]: 562
- Treatment Free Interval, Evt/N [40]: 123/189
- Treatment Free Interval, Median [40]: 344
- Treatment Free Interval, Evt/N [41]: 98/165
- Treatment Free Interval, Median [41]: 547
- Treatment Free Interval, Evt/N [42]: 130/198
- Treatment Free Interval, Median [42]: 344
- Treatment Free Interval, Evt/N [43]: 98/165
- Treatment Free Interval, Median [43]: 547
- Treatment Free Interval, Evt/N [44]: 130/198
- Treatment Free Interval, Median [44]: 344
- Treatment Free Interval, Evt/N [45]: 97/163
- Treatment Free Interval, Median [45]: 547
- Treatment Free Interval, Evt/N [46]: 129/196
- Treatment Free Interval, Median [46]: 344
- Treatment Free Interval, Evt/N [47]: 96/160
- Treatment Free Interval, Median [47]: 507
- Treatment Free Interval, Evt/N [48]: 106/142
- Treatment Free Interval, Median [48]: 234
- Treatment Free Interval, Evt/N [49]: 127/192
- Treatment Free Interval, Median [49]: 344
